Measured values taken from ChEMBL document CHEMBL1201862, “PubChem BioAssay data set” (2004).
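96-well plates; 48 h exposure; 5 concentrations. Endpoints by linear interpolation between flanking doses. Not reached: highest tested concentration assigned. GI50: concentration for 50% inhibition of growth.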 The source made the active and inactive calls. No stated cut-off is given here; in the data, active = GI50 up to about 1.1 µM and inactive = higher.

Assays:
Assay in all cases: NCI anticancer screen, dose series, 48 h
ACHN = test system: ACHN
KM12 = test system: KM12
SF-295 = test system: SF-295
DMS-114 = test system: DMS-114
A549 = test system: A549
RXF 393 = test system: RXF 393
UACC-257 = test system: UACC-257
HOP-18 = test system: HOP-18
RXF 631 = test system: RXF 631
HOP-62 = test system: HOP-62
M14 = test system: M14
SNB-78 = test system: SNB-78
KM-20L2 = test system: KM-20L2
SNB-75 = test system: SNB-75
786-0 = test system: 786-0
COLO 205 = test system: COLO 205
EKVX = test system: EKVX
HT-29 = test system: HT-29
SK-MEL-2 = test system: SK-MEL-2
HCT-116 = test system: HCT-116
SF-268 = test system: SF-268
SK-MEL-5 = test system: SK-MEL-5
SW-620 = test system: SW-620
NCI-H460 = test system: NCI-H460
MOLT-4 = test system: MOLT-4
RPMI-8226 = test system: RPMI-8226
UO-31 = test system: UO-31
UACC-62 = test system: UACC-62
NCI-H23 = test system: NCI-H23
HOP-92 = test system: HOP-92
NCI-H226 = test system: NCI-H226
HCC 2998 = test system: HCC 2998
TK-10 = test system: TK-10
SNB-19 = test system: SNB-19
OVCAR-8 = test system: OVCAR-8
HL-60 = test system: HL-60
LOX IMVI = test system: LOX IMVI
SN12C = test system: SN12C
XF498 = test system: XF498
DLD-1 = test system: DLD-1
OVCAR-4 = test system: OVCAR-4
Malme-3M = test system: Malme-3M
CCRF-CEM = test system: CCRF-CEM
SK-MEL-28 = test system: SK-MEL-28
OVCAR-5 = test system: OVCAR-5
IGROV-1 = test system: IGROV-1
U-251 = test system: U-251
LXFL 529 = test system: LXFL 529
OVCAR-3 = test system: OVCAR-3
M19-MEL = test system: M19-MEL
CAKI-1 = test system: CAKI-1
NCI-H522 = test system: NCI-H522
HCT-15 = test system: HCT-15
K562 = test system: K562
DMS-273 = test system: DMS-273
A498 = test system: A498
SF-539 = test system: SF-539
SK-OV-3 = test system: SK-OV-3
SR = test system: SR

`NC1=NC(=O)C(CC(=O)Nc2ccc([N+](=O)[O-])cc2[N+](=O)[O-])S1` (stereo not drawn) was tested, and the GI50 (ACHN) was > 100 µM (inactive), the GI50 (KM12) was > 100 µM (inactive) and the GI50 (SF-295) was > 100 µM (inactive). The GI50 (DMS-114) was > 100 µM (inactive), the GI50 (A549) was > 100 µM (inactive) and the GI50 (RXF 393) was > 100 µM (inactive). For the same molecule, the GI50 (UACC-257) was > 100 µM (inactive), the GI50 (HOP-18) was 52 µM (inactive) and the GI50 (RXF 631) was > 100 µM (inactive). The GI50 (HOP-62) was > 100 µM (inactive), the GI50 (M14) was > 100 µM (inactive) and the GI50 (SNB-78) was > 100 µM (inactive). The GI50 (KM-20L2) was > 100 µM (inactive), the GI50 (SNB-75) was 92.9 µM (inactive) and the GI50 (786-0) was > 100 µM (inactive). For the same molecule, the GI50 (COLO 205) was > 100 µM (inactive), the GI50 (EKVX) was > 100 µM (inactive) and the GI50 (HT-29) was > 100 µM (inactive). The GI50 (SK-MEL-2) was > 100 µM (inactive), the GI50 (HCT-116) was > 100 µM (inactive) and the GI50 (SF-268) was > 100 µM (inactive). For the same molecule, the GI50 (SK-MEL-5) was > 100 µM (inactive), the GI50 (SW-620) was > 100 µM (inactive) and the GI50 (NCI-H460) was > 100 µM (inactive). For the same molecule, the GI50 (MOLT-4) was > 100 µM (inactive), the GI50 (RPMI-8226) was > 100 µM (inactive) and the GI50 (UO-31) was > 100 µM (inactive). For the same molecule, the GI50 (UACC-62) was > 100 µM (inactive), the GI50 (NCI-H23) was > 100 µM (inactive) and the GI50 (HOP-92) was 16.7 µM (inactive). For the same molecule, the GI50 (NCI-H226) was > 100 µM (inactive), the GI50 (HCC 2998) was > 100 µM (inactive) and the GI50 (TK-10) was > 100 µM (inactive). The GI50 (SNB-19) was > 100 µM (inactive), the GI50 (OVCAR-8) was > 100 µM (inactive) and the GI50 (HL-60) was 83.2 µM (inactive). For the same molecule, the GI50 (LOX IMVI) was > 100 µM (inactive), the GI50 (SN12C) was > 100 µM (inactive) and the GI50 (XF498) was > 100 µM (inactive). The GI50 (DLD-1) was > 100 µM (inactive), the GI50 (OVCAR-4) was > 100 µM (inactive) and the GI50 (Malme-3M) was > 100 µM (inactive). For the same molecule, the GI50 (CCRF-CEM) was > 100 µM (inactive), the GI50 (SK-MEL-28) was > 100 µM (inactive) and the GI50 (OVCAR-5) was > 100 µM (inactive). The GI50 (IGROV-1) was > 100 µM (inactive), the GI50 (U-251) was > 100 µM (inactive) and the GI50 (LXFL 529) was > 100 µM (inactive). For the same molecule, the GI50 (OVCAR-3) was > 100 µM (inactive) and the GI50 (M19-MEL) was > 100 µM (inactive).
`Nc1nc(CC2(O)CCCCC2)cc(-c2ccccc2)n1` was tested, and the GI50 (ACHN) was 34.4 µM (inactive), the GI50 (KM12) was 23.1 µM (inactive) and the GI50 (SF-295) was 38.5 µM (inactive). For the same molecule, the GI50 (DMS-114) was 23 µM (inactive), the GI50 (A549) was 26.7 µM (inactive) and the GI50 (CAKI-1) was 51.2 µM (inactive). The GI50 (NCI-H522) was 27.2 µM (inactive), the GI50 (RXF 393) was > 40.3 µM (inactive) and the GI50 (UACC-257) was 36.3 µM (inactive). For the same molecule, the GI50 (HOP-18) was 35.5 µM (inactive), the GI50 (HCT-15) was greater than 43.9 µM and the GI50 (RXF 631) was 34.4 µM (inactive). The GI50 (HOP-62) was > 49.7 µM (inactive), the GI50 (M14) was 29.2 µM (inactive) and the GI50 (SNB-78) was > 48.6 µM (inactive). For the same molecule, the GI50 (KM-20L2) was 17.5 µM (inactive), the GI50 (SNB-75) was > 47.9 µM (inactive) and the GI50 (K562) was 16.6 µM (inactive). For the same molecule, the GI50 (786-0) was 21 µM (inactive), the GI50 (DMS-273) was > 44.9 µM (inactive) and the GI50 (COLO 205) was 16.7 µM (inactive). For the same molecule, the GI50 (A498) was 33.5 µM (inactive), the GI50 (EKVX) was 35.6 µM (inactive) and the GI50 (HT-29) was 16.6 µM (inactive). For the same molecule, the GI50 (SK-MEL-2) was 35.6 µM (inactive), the GI50 (HCT-116) was 19.8 µM (inactive) and the GI50 (SF-268) was > 64.4 µM (inactive). The GI50 (SK-MEL-5) was 24.9 µM (inactive), the GI50 (SF-539) was > 74 µM (inactive) and the GI50 (SW-620) was 25.7 µM (inactive). The GI50 (NCI-H460) was 24.3 µM (inactive), the GI50 (MOLT-4) was 16.7 µM (inactive) and the GI50 (RPMI-8226) was 23.6 µM (inactive). For the same molecule, the GI50 (UO-31) was > 55 µM (inactive), the GI50 (UACC-62) was 23.4 µM (inactive) and the GI50 (NCI-H23) was > 43 µM (inactive). The GI50 (HOP-92) was > 44.9 µM (inactive), the GI50 (NCI-H226) was > 44.8 µM (inactive) and the GI50 (HCC 2998) was 26.6 µM (inactive). The GI50 (SK-OV-3) was > 100 µM (inactive), the GI50 (TK-10) was > 61.8 µM (inactive) and the GI50 (SR) was 16.5 µM (inactive). The GI50 (SNB-19) was 31.2 µM (inactive), the GI50 (OVCAR-8) was > 50.2 µM (inactive) and the GI50 (HL-60) was 15.6 µM (inactive). For the same molecule, the GI50 (LOX IMVI) was 40.4 µM (inactive), the GI50 (SN12C) was 20.3 µM (inactive) and the GI50 (DLD-1) was 22.1 µM (inactive). The GI50 (OVCAR-4) was 35.1 µM (inactive), the GI50 (Malme-3M) was > 10 µM (inactive) and the GI50 (CCRF-CEM) was 27.5 µM (inactive). For the same molecule, the GI50 (SK-MEL-28) was > 63.2 µM (inactive), the GI50 (OVCAR-5) was 20.9 µM (inactive) and the GI50 (IGROV-1) was 43 µM (inactive). The GI50 (U-251) was 39 µM (inactive), the GI50 (LXFL 529) was > 66.7 µM (inactive) and the GI50 (OVCAR-3) was 25.6 µM (inactive). The GI50 (M19-MEL) was 28.1 µM (inactive).
